PubChem BioAssay (NCI)
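Five compound concentrations were applied to cells in 96-well plates for 48 hours; endpoints were derived by simple linear interpolation of the resulting dose-response curve. TGI: total growth inhibition.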

How the values were obtained:
Test in all cases: growth of human tumour cells (NCI), 48 h
[1] = system: NCI-H226 lung
[2] = system: EKVX NSCLC
[3] = system: TK-10 renal
[4] = system: SF-268 CNS
[5] = system: MOLT-4 leukemia
[6] = system: ACHN renal
[7] = system: CCRF-CEM leukemia
[8] = system: HOP-18 NSCLC
[9] = system: UACC-257 melanoma
[10] = system: M14 melanoma
[11] = system: DMS 114 small cell lung
[12] = system: SK-MEL-2 melanoma
[13] = system: K-562 leukemia
[14] = system: KM12 colon
[15] = system: SK-MEL-28 melanoma
[16] = system: RXF 393 renal
[17] = system: HCT-15 colon
[18] = system: RPMI-8226 leukemia
[19] = system: HT29 colon
[20] = system: A549 NSCLC
[21] = system: NCI-H23 lung
[22] = system: SK-OV-3 ovarian
[23] = system: UACC-62 melanoma
[24] = system: LXFL 529 NSCLC
[25] = system: OVCAR-4 ovarian
[26] = system: HOP-62 NSCLC
[27] = system: U251 CNS
[28] = system: XF 498 CNS
[29] = system: SNB-75 CNS
[30] = system: OVCAR-8 ovarian
[31] = system: SNB-78 CNS
[32] = system: LOX IMVI melanoma
[33] = system: SF-295 CNS
[34] = system: MALME-3M melanoma
[35] = system: UO-31 renal
[36] = system: SN12C renal
[37] = system: SNB-19 CNS
[38] = system: KM20L2 colon
[39] = system: DMS 273 small cell lung
[40] = system: HCT-116 colon
[41] = system: 786-0 renal
[42] = system: M19-MEL melanoma
[43] = system: NCI-H460 lung
[44] = system: SR leukemia
[45] = system: COLO 205 colon
[46] = system: HL-60(TB) leukemia
[47] = system: SW-620 colon
[48] = system: SK-MEL-5 melanoma
[49] = system: A498 renal
[50] = system: NCI-H522 lung
[51] = system: IGROV1 ovarian
[52] = system: RXF-631 renal
[53] = system: DLD-1 colon
[54] = system: CAKI-1 renal
[55] = system: HCC-2998 colon
[56] = system: SF-539 CNS

Compound `Cc1ccccc1NC(=O)CSc1nnc(-c2ccc(N=Cc3ccc(Cl)cc3)cc2)o1` has a TGI [1] greater than 100 µM, a TGI [2] greater than 100 µM and a TGI [3] greater than 100 µM. It also gave a TGI [4] greater than 100 µM, a TGI [5] greater than 100 µM and a TGI [6] greater than 100 µM. For the same compound, the TGI [7] was greater than 100 µM, the TGI [8] was greater than 100 µM and the TGI [9] was greater than 100 µM. The TGI [10] was greater than 100 µM, the TGI [11] was greater than 100 µM and the TGI [12] was greater than 100 µM. It also gave a TGI [13] greater than 100 µM, a TGI [14] greater than 100 µM and a TGI [15] greater than 100 µM. For the same compound, the TGI [16] was greater than 100 µM, the TGI [17] was greater than 100 µM and the TGI [18] was greater than 100 µM. The TGI [19] was greater than 100 µM, the TGI [20] was greater than 100 µM and the TGI [21] was greater than 100 µM. For the same compound, the TGI [22] was greater than 100 µM, the TGI [23] was greater than 100 µM and the TGI [24] was greater than 100 µM. The TGI [25] was greater than 100 µM, the TGI [26] was greater than 100 µM and the TGI [27] was greater than 100 µM. The TGI [28] was greater than 100 µM, the TGI [29] was greater than 100 µM and the TGI [30] was greater than 100 µM. It also gave a TGI [31] greater than 100 µM, a TGI [32] greater than 100 µM and a TGI [33] greater than 100 µM. The TGI [34] was greater than 100 µM, the TGI [35] was greater than 100 µM and the TGI [36] was greater than 100 µM. It also gave a TGI [37] greater than 100 µM, a TGI [38] greater than 100 µM and a TGI [39] greater than 100 µM. It also gave a TGI [40] greater than 100 µM, a TGI [41] greater than 100 µM and a TGI [42] greater than 100 µM. It also gave a TGI [43] greater than 100 µM, a TGI [44] greater than 100 µM and a TGI [45] greater than 100 µM. The TGI [46] was greater than 100 µM, the TGI [47] was greater than 100 µM and the TGI [48] was greater than 100 µM.

Work on `CCOc1ccc2nc(NC(=O)C(=O)C(C(=O)c3ccccc3F)C3OC(=O)c4ccccc43)sc2c1` (stereo unspecified) yielded a TGI [1] of 27.5 µM, a TGI [2] of 45.3 µM and a TGI [3] of 90.7 µM. It also gave a TGI [4] of 82 µM, a TGI [5] greater than 100 µM and a TGI [6] greater than 100 µM. It also gave a TGI [7] of 40.1 µM, a TGI [9] greater than 100 µM and a TGI [10] of 32.5 µM. It also gave a TGI [49] greater than 100 µM, a TGI [50] of 27.8 µM and a TGI [51] of 83.2 µM. For the same compound, the TGI [12] was 39.1 µM, the TGI [13] was greater than 100 µM and the TGI [14] was 19 µM. It also gave a TGI [15] of 46.5 µM, a TGI [16] of 38.3 µM and a TGI [17] of 38.2 µM. For the same compound, the TGI [52] was 70.1 µM, the TGI [18] was 90 µM and the TGI [20] was 76.4 µM. The TGI [53] was greater than 100 µM, the TGI [22] was 55.1 µM and the TGI [23] was 27.7 µM. The TGI [24] was 77.8 µM, the TGI [54] was 75.3 µM and the TGI [25] was 77.6 µM. The TGI [26] was greater than 100 µM, the TGI [55] was 29.7 µM and the TGI [27] was 23.8 µM. For the same compound, the TGI [28] was 46.2 µM, the TGI [29] was 46.4 µM and the TGI [56] was 52.4 µM. For the same compound, the TGI [30] was 32.8 µM, the TGI [31] was 74.4 µM and the TGI [35] was 33.6 µM. It also gave a TGI [36] of 54.1 µM, a TGI [37] of 40.2 µM and a TGI [38] of 71 µM. The TGI [39] was 51.4 µM, the TGI [40] was 31.8 µM and the TGI [42] was 27 µM. It also gave a TGI [43] of 39.5 µM, a TGI [44] of 55.6 µM and a TGI [45] of 30.4 µM. For the same compound, the TGI [46] was 50.1 µM, the TGI [47] was 37.5 µM and the TGI [48] was 33.8 µM.
